Measured values: PubChem BioAssay AID1918995 (Molecular Pharmacology Branch, DTP, NCI, 2023)

Test system: 324938-238-R-J1-PDC complex spheroid growth, % test/control
Experiment: Anticancer human tumor 324938-238-R-J1-PDC patient-derived bladder carcinoma cell line growth inhibition [AhR]
Conditions: for IC50: curve of first compound; for viability, T/C: stronger effect = lower value; active = viability on the fitted dose curve at most 10% of control; inactive = the rest
How it was run: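 Complex tumor spheroids co-cultured with HUVEC and human MSC stroma; AhR antagonists tested in combination with standard-of-care and investigational agents. Top concentration at or near clinical Cmax (else 10 microM), half-log dilutions; growth expressed as percent test/control.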

[1] = second compound 0.1 µM, first compound 0.0316 µM
[2] = second compound 0.1 µM, first compound 0.1 µM
[3] = second compound 0.1 µM, first compound 0.316 µM
[4] = second compound 0.1 µM, first compound 1 µM
[5] = second compound 0.1 µM, first compound 3.16 µM
[6] = second compound 0.1 µM, first compound 10 µM
[7] = second compound 0.316 µM, first compound 0.0316 µM
[8] = second compound 0.316 µM, first compound 0.1 µM
[9] = second compound 0.316 µM, first compound 0.316 µM
[10] = second compound 0.316 µM, first compound 1 µM
[11] = second compound 0.316 µM, first compound 3.16 µM
[12] = second compound 0.316 µM, first compound 10 µM
[13] = second compound 1 µM, first compound 0.0316 µM
[14] = second compound 1 µM, first compound 0.1 µM
[15] = second compound 1 µM, first compound 0.316 µM
[16] = second compound 1 µM, first compound 1 µM
[17] = second compound 1 µM, first compound 3.16 µM
[18] = second compound 1 µM, first compound 10 µM
[19] = second compound 3.16 µM, first compound 0.0316 µM
[20] = second compound 3.16 µM, first compound 0.1 µM
[21] = second compound 3.16 µM, first compound 0.316 µM
[22] = second compound 3.16 µM, first compound 1 µM
[23] = second compound 3.16 µM, first compound 3.16 µM
[24] = second compound 3.16 µM, first compound 10 µM
[25] = second compound 10 µM, first compound 0.0316 µM
[26] = second compound 10 µM, first compound 0.1 µM
[27] = second compound 10 µM, first compound 0.316 µM
[28] = second compound 10 µM, first compound 1 µM
[29] = second compound 10 µM, first compound 3.16 µM
[30] = second compound 10 µM, first compound 10 µM
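Also: spheroids exposed to agents for seven days before viability read.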

CC1(C)CCC(CN2CCN(c3ccc(C(=O)NS(=O)(=O)c4ccc(NCC5CCOCC5)c([N+](=O)[O-])c4)c(Oc4cnc5[nH]ccc5c4)c3)CC2)=C(c2ccc(Cl)cc2)C1 + Cc1cncc(-c2nc(NCCc3c[nH]c4ccccc34)c3ncn(C(C)C)c3n2)c1
inactive: viability, T/C [1] 108% | viability, T/C [2] 80.3% | viability, T/C [3] 109% | viability, T/C [4] 93% | viability, T/C [5] 109% | viability, T/C [6] 117% | viability, T/C [7] 94.2% | viability, T/C [8] 96.9% | viability, T/C [9] 136% | viability, T/C [10] 87.7% | viability, T/C [11] 86.6% | viability, T/C [12] 114% | viability, T/C [13] 112% | viability, T/C [14] 123% | viability, T/C [15] 131% | viability, T/C [16] 107% | viability, T/C [17] 103% | viability, T/C [18] 130% | viability, T/C [19] 106% | viability, T/C [20] 93.5% | viability, T/C [21] 115% | viability, T/C [22] 102% | viability, T/C [23] 112% | viability, T/C [24] 106% | viability, T/C [25] 13.5%
active: viability, T/C [26] 8.66% | viability, T/C [27] 11.9% | viability, T/C [28] 7.88% | viability, T/C [29] 9.07% | viability, T/C [30] 12.5%
> 10000 nM: IC50 (second compound 0.1 µM) | IC50 (second compound 0.316 µM) | IC50 (second compound 1 µM) | IC50 (second compound 3.16 µM)
< 31.6 nM: IC50 (second compound 10 µM)

CCN(c1cc(-c2ccc(CN3CCOCC3)cc2)cc(C(=O)NCc2c(C)cc(C)[nH]c2=O)c1C)C1CCOCC1 + Cc1cncc(-c2nc(NCCc3c[nH]c4ccccc34)c3ncn(C(C)C)c3n2)c1
< 9.49 nM: IC50 (second compound 10 µM)
inactive: viability, T/C (second compound 0.1 µM, first compound 0.00949 µM) 106% | viability, T/C (second compound 0.1 µM, first compound 0.03 µM) 135% | viability, T/C (second compound 0.1 µM, first compound 0.0949 µM) 123% | viability, T/C (second compound 0.1 µM, first compound 0.3 µM) 104% | viability, T/C (second compound 0.1 µM, first compound 0.949 µM) 106% | viability, T/C (second compound 0.1 µM, first compound 3 µM) 156% | viability, T/C (second compound 0.316 µM, first compound 0.00949 µM) 94.5% | viability, T/C (second compound 0.316 µM, first compound 0.03 µM) 89.3% | viability, T/C (second compound 0.316 µM, first compound 0.0949 µM) 112% | viability, T/C (second compound 0.316 µM, first compound 0.3 µM) 105% | viability, T/C (second compound 0.316 µM, first compound 0.949 µM) 109% | viability, T/C (second compound 0.316 µM, first compound 3 µM) 112% | viability, T/C (second compound 1 µM, first compound 0.00949 µM) 83.9% | viability, T/C (second compound 1 µM, first compound 0.03 µM) 118% | viability, T/C (second compound 1 µM, first compound 0.0949 µM) 117% | viability, T/C (second compound 1 µM, first compound 0.3 µM) 109% | viability, T/C (second compound 1 µM, first compound 0.949 µM) 94% | viability, T/C (second compound 1 µM, first compound 3 µM) 108% | viability, T/C (second compound 3.16 µM, first compound 0.00949 µM) 102% | viability, T/C (second compound 3.16 µM, first compound 0.03 µM) 102% | viability, T/C (second compound 3.16 µM, first compound 0.0949 µM) 124% | viability, T/C (second compound 3.16 µM, first compound 0.3 µM) 86.3% | viability, T/C (second compound 3.16 µM, first compound 0.949 µM) 110% | viability, T/C (second compound 3.16 µM, first compound 3 µM) 93.8% | viability, T/C (second compound 10 µM, first compound 0.00949 µM) 12.1% | viability, T/C (second compound 10 µM, first compound 0.03 µM) 15.5% | viability, T/C (second compound 10 µM, first compound 0.0949 µM) 15.5% | viability, T/C (second compound 10 µM, first compound 0.3 µM) 17.9% | viability, T/C (second compound 10 µM, first compound 0.949 µM) 8.72% | viability, T/C (second compound 10 µM, first compound 3 µM) 7.72%
> 3000 nM: IC50 (second compound 0.1 µM) | IC50 (second compound 0.316 µM) | IC50 (second compound 1 µM) | IC50 (second compound 3.16 µM)

Cn1ncnc1C1c2n[nH]c(=O)c3cc(F)cc(c23)NC1c1ccc(F)cc1 (stereo not given) + Cc1cncc(-c2nc(NCCc3c[nH]c4ccccc34)c3ncn(C(C)C)c3n2)c1
< 0.316 nM: IC50 (second compound 10 µM)
> 100 nM: IC50 (second compound 0.1 µM) | IC50 (second compound 0.316 µM) | IC50 (second compound 1 µM) | IC50 (second compound 3.16 µM)
inactive: viability, T/C (second compound 0.1 µM, first compound 0.000316 µM) 92.1% | viability, T/C (second compound 0.1 µM, first compound 0.001 µM) 110% | viability, T/C (second compound 0.1 µM, first compound 0.00316 µM) 105% | viability, T/C (second compound 0.1 µM, first compound 0.01 µM) 94.5% | viability, T/C [1] 120% | viability, T/C [2] 86.2% | viability, T/C (second compound 0.316 µM, first compound 0.000316 µM) 108% | viability, T/C (second compound 0.316 µM, first compound 0.001 µM) 113% | viability, T/C (second compound 0.316 µM, first compound 0.00316 µM) 138% | viability, T/C (second compound 0.316 µM, first compound 0.01 µM) 81.6% | viability, T/C [7] 112% | viability, T/C [8] 105% | viability, T/C (second compound 1 µM, first compound 0.000316 µM) 78.9% | viability, T/C (second compound 1 µM, first compound 0.001 µM) 142% | viability, T/C (second compound 1 µM, first compound 0.00316 µM) 116% | viability, T/C (second compound 1 µM, first compound 0.01 µM) 112% | viability, T/C [13] 106% | viability, T/C [14] 134% | viability, T/C (second compound 3.16 µM, first compound 0.000316 µM) 93.7% | viability, T/C (second compound 3.16 µM, first compound 0.001 µM) 112% | viability, T/C (second compound 3.16 µM, first compound 0.00316 µM) 92.6% | viability, T/C (second compound 3.16 µM, first compound 0.01 µM) 98.1% | viability, T/C [19] 94.2% | viability, T/C [20] 99.3% | viability, T/C (second compound 10 µM, first compound 0.000316 µM) 9.29% | viability, T/C (second compound 10 µM, first compound 0.001 µM) 12.6% | viability, T/C (second compound 10 µM, first compound 0.00316 µM) 9.9% | viability, T/C (second compound 10 µM, first compound 0.01 µM) 13% | viability, T/C [25] 9.12% | viability, T/C [26] 22.1%

NS(=O)(=O)OCC1CC(n2ccc3c(NC4CCc5ccccc54)ncnc32)CC1O (stereo not given) + Cc1cncc(-c2nc(NCCc3c[nH]c4ccccc34)c3ncn(C(C)C)c3n2)c1
2970 nM: IC50 (second compound 1 µM)
2480 nM: IC50 (second compound 0.316 µM)
< 31.6 nM: IC50 (second compound 10 µM)
8510 nM: IC50 (second compound 3.16 µM)
2650 nM: IC50 (second compound 0.1 µM)
inactive: viability, T/C [1] 122% | viability, T/C [2] 101% | viability, T/C [3] 93.4% | viability, T/C [4] 71.9% | viability, T/C [5] 42.9% | viability, T/C [6] 25.7% | viability, T/C [7] 99.7% | viability, T/C [8] 104% | viability, T/C [9] 99.9% | viability, T/C [10] 71% | viability, T/C [11] 46.4% | viability, T/C [12] 32.5% | viability, T/C [13] 82.3% | viability, T/C [14] 95.5% | viability, T/C [15] 95.3% | viability, T/C [16] 97.6% | viability, T/C [17] 47.5% | viability, T/C [18] 29.1% | viability, T/C [19] 80% | viability, T/C [20] 114% | viability, T/C [21] 140% | viability, T/C [22] 103% | viability, T/C [23] 64.2% | viability, T/C [24] 47.5% | viability, T/C [25] 7.19% | viability, T/C [26] 15.3% | viability, T/C [27] 19% | viability, T/C [28] 23% | viability, T/C [29] 14.3% | viability, T/C [30] 7.16%
